Experiment [1] relates to H2O2 production in human monocytes and macrophages. Kind of experiment: Production of H2O2 in silica-stimulated human monocytes and macrophages. In kind it is cell-based. The following applies: 10 μg/ml, 1 hour, 100 μg/ml silica, FIG. 5. Here is the method: Normal human peripheral blood was heparin-treated and diluted with equal amount of Hank's balanced salt solution (HBSS: Ca^2+ and Mg^2+ free). The diluted blood was put into a centrifuge tube containing therein Ficoll-Hypaque(Sigma, St. Louis, Mo., U.S.A.) layer having a density of 1.077 piled up on Ficoll-Hypaque layer having a density of 1.119, and then centrifuged at 700×g for 30 minutes to obtain monocytes from the layer between Ficoll-Hypaque layer having a density of 1.077 and serum layer, and neutrophils from the layer between Ficoll-Hypaque layer having a density of 1.077 and that having a density of 1.119. The separated cells were washed twice with 4° C. HBSS(Ca^2+ and Mg^2+ free) and suspended in RPMI 1640 medium(Gibco, Grand Island, N.Y., U.S.A.) containing 10% fetal bovine serum(FBS, Hyclone, Logan, Utah, U.S.A.). […] The amount of H2 O2 was determined by a microassay employing 96-well microplate as follows. […] When the incubation was completed, 3M NaOH was added to the wells in an amount of 25 μl/well to stop the reaction and O.D. was measured at 620 nm by using ELISA reader(Dynatech Lab. Inc.) to determine the change of colors with respect to the oxidation of phenol. The amount of H2 O2 was determined by employing a standard curve prepared by diluted H2 O2 (Sigma). […]

Experiment [2] relates to collagen in rat pulmonary tissue. Kind of experiment: Inhibition of collagen synthesis in rat pulmonary tissues (hydroxyproline). In kind it is in vivo. To be noted: rat pulmonary tissue treated with silica, DMSO and acanthoic acid; normal = 100%; FIG. 8. Here is the method: IL-1 and TNF-α are known as cytokines which cause fibrosis and induce collagen synthesis in rat fibroblast(Kang, H. S., et al., Korean. J. Immunol., 14, 193(1992)). For the purpose of confirming the ability of acanthoic acid to suppress the action of IL-1 and TNF-α, its inhibitory effect on the collagen synthesis in rat pulmonary fibroblast and pulmonary tissues was determined. The amount of produced collagen in the culture of rat pulmonary fibroblast was measured by an indirect ELISA method, and that of pulmonary tissue was determined by measuring the concentration of hydroxyproline and calculating the amount of collagen therefrom by using the standard curve of internal control group. Further, for the purpose of determining the amount of synthesized collagen in rat pulmonary tissues, the amount of hydroxyproline was measured as follows. 0.1 to 0.2 g of the rat pulmonary tissue was mixed with 1 ml of PBS and then crushed in a Pyrex tube(Corning, Rochester, N.Y., U.S.A.). […] The resultant was freezed in a freezer, lyophilized in a freeze-dryer(Labconco) and dissolved completely in 1 ml of distilled water. 50 μl of the resulting solution was diluted with 50 μl of distilled water in a microcentrifuge tube. […] O.D. of the sample was measured at 650 nm, and the amount of hydroxyproline in the sample was calculated by employing the standard curve of internal control group.

The test system of experiment [3] is TNF-α production in rat alveolar macrophages and lymphocytes. Nature of the experiment: Inhibition of TNF-α production in rat alveolar macrophages and lymphocytes. To be noted: 10 μg/ml; 100 μg/ml silica, 3 days; FIG. 4. In kind it is cell-based. The method, then:
TNF-α dependent L929 fibroblasts(ATCC CCLl) were suspended in RPMI 1640 medium containing 5% FBS and added to the wells of 96-well incubation plate in an amount of 3×10^4 cells/well. The plate was incubated at 37° C. for 2 hours to make the cells adhere to the incubation plate. Then, the medium was removed and 1 μg/ml of actinomycin D(Sigma) and 50 μl of culture dialyzate of monocytes and macrophages obtained in Example 1 were added to each of the wells. The final concentration of FBS in each well was adjusted to 5% and the cells were incubated at 37° C. under 5% CO2 for 24 hours.
When the incubation was completed, the medium was removed and the cells were washed twice with PBS and stained for 5 minutes with 0.5% crystal violet solution in 20% methanol. The cells were washed three times with PBS and dried. Then, 100 μl of 33% acetic acid was added to each of the wells to release the dye, and then the O.D. of sample obtained from each of the wells was determined by using ELISA reader with 570 nm reading filter and 405 nm reference filter. The amount of released dye was calculated from the O.D. value with reference to that of the internal control group, i.e., rHu TNF-α(Genzyme). […]

Each structure is given as a SMILES string.

Turning to `C=C[C@@]1(C)CC=C2C(CCC3[C@](C)(C(=O)O)CCC[C@@]23C)C1` (single isomer, unassigned; (-)) [acanthoic acid, (-)-pimara-9(11),15-diene-19-oic acid], the “amount of H2O2” value in experiment [1] is recorded as “decrease significantly”. Also, in experiment [2], the “decrease of amount of synthesized collagen” value is “about 50%”. Moreover, the “inhibition of production of TNF-α” value in experiment [3] was “inhibited”.
